From patent US12435108B2, “Teixobactin analogue and use thereof” (SUNSHINE LAKE PHARMA CO., LTD., priority 2019, dated 2025)
Read-outs that look alike come from different tables or passages of the source.

Assays:
[1] = system: MRSA (ATCC43300)
Procedure: (§1) For the determination of the minimum inhibitory concentration (MIC), according to the CLSI standard, the minimum inhibitory concentration of 3 ATCC standard strains (2 strains of Staphylococcus aureus and 1 strain of Enterococcus faecium) was tested by two independent repeated experiments. Compounds were diluted two-fold in a 96-well plate from the highest detection concentration of 64 μg/mL. The test plate was placed in a common incubator and incubated at 35±2° C. for 20-24 hours. The growth of bacteria in the wells was observed and recorded. Inoculation method: 5-10 bacterial single colonies from the solid medium plate resuspended in 500 μL of 1.02×CAMHB, and then OD600 was adjusted to 0.1-0.15 with a spectrophotometer; then the bacteria were diluted 300-fold with 1.02×CAMHB to ˜2×10^5 CFU/ml (stepwise dilution, first 10-fold and then 30-fold), and the prepared bacterial inoculum was inoculated in 96-well plate within 15 minutes, the number of inoculated bacteria could be obtained by plate count. Colony count: the inoculated bacteria was diluted with liquid medium from 10^−1 to 10^−3 (such as 100 μL of bacterial inoculum+900 μL of 1.02×CAMHB); 100 μl of the above bacterial dilution was evenly spread on a TSA or TSA II plate, with 2 replicates per dilution. After the medium was absorbed by TSA or TSA II for 10 minutes, the plate was inverted and cultured at 35±2° C. for 24 hours in an incubator. Record of minimum inhibitory concentration and statistics of colony count: the minimum inhibitory concentration of each compound was recorded referring to the CLSI standard; the number of colonies of bacterial inoculum of different dilutions on the TSA or TSA II plate was counted and the amount of bacterial inoculation was calculated. Selection of strain types: MRSA (ATCC43300), MSSA (ATCC29213) and VRE (ATCC700221).

[2] = system: MSSA (ATCC29213)
Procedure: as §1

[3] = system: VRE (ATCC700221); conditions: ATCC700221
Procedure: as §1

Structure (SMILES)	In vitro antibacterial activity MIC, MRSA(ATCC43300) ([1]; 96-well plate, CAMHB, 35±2 °C, 20-24 hours, highest concentration 64 μg/mL) [µg/mL]	In vitro antibacterial activity MIC, MSSA(ATCC29213) ([2]; Test Method 2: 96-well plate, CAMHB, 35±2 °C, 20-24 hours, highest concentration 64 μg/mL) [µg/mL]	In vitro antibacterial activity MIC, MRSA(ATCC43300) ([1]; ATCC43300) [µg/mL]	In vitro antibacterial activity MIC, MSSA(ATCC29213) ([2]; ATCC29213) [µg/mL]	In vitro antibacterial activity MIC, VRE(ATCC700221) [3] [µg/mL]
CC[C@H](C)[C@H](NC(=O)[C@@H](Cc1ccccc1)NC)C(=O)N[C@@H](CO)C(=O)N[C@H](CCC(N)=O)C(=O)N[C@@H](C(=O)N[C@H](C(=O)N[C@@H](CO)C(=O)N[C@H]1C(=O)N[C@@H](C)C(=O)N[C@@]2(C[C@H]2CCO)C(=O)N[C@@H]([C@@H](C)CC)C(=O)O[C@H]1C)[C@@H](C)CC)[C@@H](C)CC.O=C(O)C(F)(F)F [Example 12]	8	8	–	–	–
CC[C@H](C)[C@H](NC(=O)[C@@H](Cc1csc2ccccc12)NC)C(=O)N[C@@H](CO)C(=O)N[C@H](CCC(N)=O)C(=O)N[C@@H](C(=O)N[C@H](C(=O)N[C@@H](CO)C(=O)N[C@H]1C(=O)N[C@@H](C)C(=O)N[C@@]2(C[C@H]2CC(F)F)C(=O)N[C@@H]([C@@H](C)CC)C(=O)O[C@H]1C)[C@@H](C)CC)[C@@H](C)CC.O=C(O)C(F)(F)F [Example 14]	–	–	4	4	8
CC[C@H](C)[C@H](NC(=O)[C@@H](Cc1csc2ccccc12)NC)C(=O)N[C@@H](CO)C(=O)N[C@H](CCC(N)=O)C(=O)N[C@@H](C(=O)N[C@H](C(=O)N[C@@H](CO)C(=O)N[C@H]1C(=O)N[C@@H](C)C(=O)NC2(CC2)C(=O)N[C@@H]([C@@H](C)CC)C(=O)O[C@H]1C)[C@@H](C)CC)[C@@H](C)CC.O=C(O)C(F)(F)F [Example 15]	–	–	4	4	8
C=C[C@H]1C[C@]12NC(=O)[C@H](C)NC(=O)[C@H](NC(=O)[C@H](CO)NC(=O)[C@@H](NC(=O)[C@H](NC(=O)[C@@H](CCC(N)=O)NC(=O)[C@H](CO)NC(=O)[C@@H](NC(=O)[C@@H](Cc1csc3ccccc13)NC)[C@@H](C)CC)[C@@H](C)CC)[C@@H](C)CC)[C@H](C)OC(=O)[C@H]([C@@H](C)CC)NC2=O.O=C(O)C(F)(F)F [Example 16]	–	–	4	4	4
CC[C@H](C)[C@H](NC(=O)[C@@H](Cc1csc2ccccc12)NC)C(=O)N[C@@H](CO)C(=O)N[C@H](CCC(N)=O)C(=O)N[C@@H](C(=O)N[C@H](C(=O)N[C@@H](CO)C(=O)N[C@H]1C(=O)N[C@@H](C)C(=O)NC2(CCCCCC2)C(=O)N[C@@H]([C@@H](C)CC)C(=O)O[C@H]1C)[C@@H](C)CC)[C@@H](C)CC.O=C(O)C(F)(F)F [Example 17]	–	–	4	4	8
CC[C@H](C)[C@H](NC(=O)[C@@H](Cc1ccc(-c2ccccc2)cc1)NC)C(=O)N[C@@H](CO)C(=O)N[C@H](CCC(N)=O)C(=O)N[C@@H](C(=O)N[C@H](C(=O)N[C@@H](CO)C(=O)N[C@H]1C(=O)N[C@@H](C)C(=O)NC2(CC2)C(=O)N[C@@H]([C@@H](C)CC)C(=O)O[C@H]1C)[C@@H](C)CC)[C@@H](C)CC.O=C(O)C(F)(F)F [Example 18]	–	–	2	2	2
CC[C@H](C)[C@H](NC(=O)[C@@H](Cc1ccc(-c2ccccc2)cc1)NC)C(=O)N[C@@H](CO)C(=O)N[C@H](CCC(N)=O)C(=O)N[C@@H](C(=O)N[C@H](C(=O)N[C@@H](CO)C(=O)N[C@H]1C(=O)N[C@@H](C)C(=O)NC2(CCCCCC2)C(=O)N[C@@H]([C@@H](C)CC)C(=O)O[C@H]1C)[C@@H](C)CC)[C@@H](C)CC.O=C(O)C(F)(F)F [Example 19]	–	–	4	4	4
